Source: PMC9862026, “In Vivo Toxicity, Redox-Modulating Capacity and Intestinal Permeability of Novel Aroylhydrazone Derivatives as Anti-Tuberculosis Agents” (Pharmaceutics, 2022)
≈ marks a conversion by molar mass, not a printed value. Entries after “also recorded” stand apart in the source; their conditions may differ. Read-outs that look alike come from different tables or passages of the source. Marks after values point to notes of the source that are not given here.

Experiments:
[1] = tested on: GSH in the liver homogenate; test: Total glutathione in liver homogenate; format: in vivo, mice; conditions: both doses (125 and 250 mg/kg) oral, 14 days
Method: (§1) Serum biochemical parameters were assessed as follows.
According to Rahman et al. total glutathione (tGSH) concentration was determined. In the reaction between GSH and 5,5′-dithiobis-2-nitrobenzoic acid (DTNB), the rate of formation of colored substance, 5′-thio-2-nitrobenzoic acid (TNB), is proportional to the concentration of tGSH in the sample. The maximal absorption of colored TNB is at 412 nm. The concentration of tGSH was calculated using oxidized glutathione as a reference standard and was expressed as ng/mg protein.

male Jcl:ICR mice [2] = test: Sub-acute toxicity, 14 days oral: serum biochemical parameters; format: in vivo; conditions: serum
Method: (§2) The sub-acute toxicity effects were assessed after repeated (14 days) oral administration to male mice. […] The experiments were performed with male Jcl: ICR mice at the same age of 6 weeks and weighing approximately 30–35 g, in which the substances were administered daily for 14 days orally with a gastric tube at approximately the same time of the day. The compounds were solubilized with Tween 80 (0.1%) in distilled water and administered orally in a volume of 0.1 mL per 10.0 g. Animals were observed daily for behavioral changes and signs of toxicity. All results were compared with the positive control isoniazid (INH).
as §1

male Jcl:ICR mice [3] = test: Sub-acute toxicity, 14 days oral: body weight; format: in vivo; conditions: 125 mg/kg oral, end of 14-day period
Method: as §2, §1

DPPH assay = conditions: 0.1 mM DPPH in methanol, 30 min
Method: DPPH (2,2′-diphenyl-1-picrylhydrazyl radical) assay analysis of pure compounds was conducted by the method described by Brand-Williams et al.. First, 500 μL of the test solutions were added to 500 μL of a freshly prepared solution of 0.1 mM DPPH in methanol and incubated in the dark for 30 min. Then the absorbance at 517 nm (A517) was measured against a mixture of DPPH solution and methanol (1:1) as a control.
(§3) All data are presented as IC50, which gave 50% inhibition of the activities and compared against the activity of Trolox—a common antioxidant, at the same concentrations.

[4] = tested on: M. tuberculosis H37Rv reference strain; conditions: ref [22]; cited from earlier work
male Jcl:ICR mice [5] = test: Sub-acute toxicity, 14 days oral: complete blood count; format: in vivo
Method: as §2, §1

[6] = tested on: Glutathione peroxidase in the liver supernatant; test: Glutathione peroxidase activity in liver supernatant; format: in vivo, mice; conditions: 125 and 250 mg/kg oral, 14 days; vs controls
Method: as §1
The Glutathione Peroxidase Cellular Activity Assay Kit (Cat. No. CGP1) and Glutathione Reductase Assay Kit (Cat. No. GRSA) were used to measure the activities of glutathione-related enzymes.

ABTS•+ assay = conditions: 15 min at 37 °C
Method: ABTS (2,2′-azino-bis (3-ethylbenzthiazoline-6-sulphonic acid) (7.0 mM) was mixed with potassium persulfate (2.45 mM) to obtain the cationic radical (ABTS•+) The solution was diluted in methanol (2 mL ABTS•+ + 58 mL methanol). The absorption at 743 nm of the resulting working solution was 1.1 ± 0.02 AU. Then, 1.425 mL of ABTS•+ working solution was added to 75 μL of the test drugs, and the absorption at 743 nm was measured after 15 min of incubation at 37 °C against methanol. A blank containing 75 μL of water instead of the test extract also was measured against methanol.
as §3

female Jcl:ICR mice = conditions: i.p.; for Lethality: female mice
HEK-293T = conditions: cited from earlier work

For COc1ccc2[nH]cc(C=NNC(=O)c3ccco3)c2c1 [3b, N′-[(5-methoxy-1H-indol-3-yl)methylidene]furan-2-carbohydrazide], the “level of GSH in liver homogenate” value [1] was “did not significantly increase the level of GSH”, the ALAT (male Jcl:ICR mice [2]; 125 mg/kg oral) was 77.2 ± 2.8 *^+ U/L and the ALB (male Jcl:ICR mice [2]; 125 mg/kg oral) was 28.5 ± 3.3 ^+ g/L. The ASAT (male Jcl:ICR mice [2]; 125 mg/kg oral) was 112.1 ± 4.4 U/L, the CREAT (male Jcl:ICR mice [2]; 125 mg/kg oral) was 88.2 ± 3.1 ^+ µmol/L and the D-Bil (male Jcl:ICR mice [2]; 125 mg/kg oral) was 5.1 ± 0.23 ^+ µmol/L. The GLU (male Jcl:ICR mice [2]; 125 mg/kg oral) was 6.8 ± 0.22 mmol/L, the T-Bil (male Jcl:ICR mice [2]; 125 mg/kg oral) was 7.8 ± 0.23 ^+ µmol/L and the TP (male Jcl:ICR mice [2]; 125 mg/kg oral) was 56.6 ± 4.2 ^+ g/L. For the same compound, the UA (male Jcl:ICR mice [2]; 125 mg/kg oral) was 199 ± 14.6 µmol/L, the UREA (male Jcl:ICR mice [2]; 125 mg/kg oral) was 8.7 ± 0.26 ^+ mmol/L and the ALAT (male Jcl:ICR mice [2]; 250 mg/kg oral) was 71.2 ± 1.9 *^+ U/L. For the same compound, the ALB (male Jcl:ICR mice [2]; 250 mg/kg oral) was 28.2 ± 2.8 g/L, the ASAT (male Jcl:ICR mice [2]; 250 mg/kg oral) was 110 ± 3.1 U/L and the CREAT (male Jcl:ICR mice [2]; 250 mg/kg oral) was 92.2 ± 4.4 ^+ µmol/L. The D-Bil (male Jcl:ICR mice [2]; 250 mg/kg oral) was 3.8 ± 0.42 ^+ µmol/L, the GLU (male Jcl:ICR mice [2]; 250 mg/kg oral) was 7.0 ± 0.16 mmol/L and the T-Bil (male Jcl:ICR mice [2]; 250 mg/kg oral) was 8.1 ± 0.32 ^+ µmol/L. The TP (male Jcl:ICR mice [2]; 250 mg/kg oral) was 52.2 ± 5.1 ^+ g/L, the UA (male Jcl:ICR mice [2]; 250 mg/kg oral) was 201.3 ± 12 µmol/L and the UREA (male Jcl:ICR mice [2]; 250 mg/kg oral) was 8.4 ± 0.23 ^+ mmol/L. For the same compound, the “Body weight gain compared to the beginning of the experimental period” value (male Jcl:ICR mice [3]) was 44%, the “DPPH Scavenging, IC50” value (DPPH assay) was 18.69 * mg/mL and the MIC [4] was 0.4412 µM (≈ 0.125 µg/mL). For the same compound, the HCT (male Jcl:ICR mice [5]; 125 mg/kg oral) was 39.6 ± 0.8 ^+ %, the Hgb (male Jcl:ICR mice [5]; 125 mg/kg oral) was 132.2 ± 4.2 ^+ g/L and the PLT (male Jcl:ICR mice [5]; 125 mg/kg oral) was 729 ± 203 10^9/L. For the same compound, the RBC (male Jcl:ICR mice [5]; 125 mg/kg oral) was 7.21 ± 0.16 ^+ × 10^12/L, the WBC (male Jcl:ICR mice [5]; 125 mg/kg oral) was 8.2 ± 0.28 *^+ × 10^9/L and the HCT (male Jcl:ICR mice [5]; 250 mg/kg oral) was 40.1 ± 1.2 ^+ %. For the same compound, the Hgb (male Jcl:ICR mice [5]; 250 mg/kg oral) was 130.2 ± 3.7 ^+ g/L, the PLT (male Jcl:ICR mice [5]; 250 mg/kg oral) was 864 ± 212 10^9/L and the RBC (male Jcl:ICR mice [5]; 250 mg/kg oral) was 7.62 ± 0.24 ^+ × 10^12/L. For the same compound, the WBC (male Jcl:ICR mice [5]; 250 mg/kg oral) was 7.7 ± 0.33 *^+ × 10^9/L, the “activity of GPx in liver” value [6] was “restored the control values of GPx; also recorded: did not statistically significantly alter” and the “ABTS Scavenging, IC50” value (ABTS•+ assay) was 40.35 * mg/mL. For the same compound, the Lethality (female Jcl:ICR mice; 500 mg/kg b.w.) was 0/3, the Lethality (female Jcl:ICR mice; 1000 mg/kg b.w.) was 0/3 and the Lethality (female Jcl:ICR mice; 1500 mg/kg b.w.) was 0/3. For the same compound, the Lethality (female Jcl:ICR mice; 2000 mg/kg b.w.) was 0/3, the “Symptoms before Death Occur” value (female Jcl:ICR mice; 3000 mg/kg b.w.) was “Impaired coordination, rapid breathing, clonic seizures, death” and the “Time of Occurrence of Fatal Outcome” value (female Jcl:ICR mice; 3000 mg/kg b.w.) was “After 3 h”. For the same compound, the IC50 (HEK-293T) was 280 µM.
